Measured values taken from publication PMC9506485, “Synthesis and Structure–Activity Relationships for the Anti-Mycobacterial Activity of 3-Phenyl-N-(Pyridin-2-ylmethyl)Pyrazolo[1,5-a]Pyrimidin-7-Amines” (Pharmaceuticals, 2022).
In brackets after ≈: the same amount, converted by molar mass.

Assays:
tuberculosis = tested on: tuberculosis; design: method as in doi:10.1039/C5MD00589B, PMID 35140452; conditions: cited from earlier work
M.tb bacteria = tested on: M.tb bacteria; design: method as in doi:10.1039/C5MD00589B, PMID 35140452; conditions: cited from earlier work
[1] = tested on: M. smegmatis inverted membrane vesicle; design: method as in doi:10.1039/C5MD00589B, PMID 35140452; conditions: M. smegmatis inverted membrane vesicle assay; cited from earlier work
[2] = Microsomal stability, human liver microsomes; type: in vitro ADME; conditions: pH 7.4; for CLint scaled at 1 μM / half-life at 1 μM: human, microsomes; for microsomal CLint at 1 μM: human liver microsomes, read-out: HLM Clint(mic)
Outline: (§1)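 Compounds at 1 μM incubated at 37 °C with human or CD-1 mouse liver microsomes (0.5 mg/mL protein) plus NADPH regenerating system in 100 mM phosphate buffer, pH 7.4. Samples taken at 0–60 min, quenched in cold acetonitrile and analysed by LC-MS/MS.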

[3] = Microsomal stability, mouse liver microsomes; type: in vitro ADME; conditions: for CLint scaled at 1 μM / half-life at 1 μM: CD-1, mouse, microsomes, pH 7.4; for microsomal CLint at 1 μM: CD-1, pH 7.4, mouse liver microsomes, read-out: MLM Clint(mic)
Outline: as §1

[4] = tested on: VERO green monkey kidney cells; test: VERO mammalian cell toxicity assay; type: cell-based; conditions: Chlorocebus sabaeus; inhibition of growth of VERO green monkey kidney epithelial cells
[5] = tested on: Mycobacterium tuberculosis (strain H37Rv); test: MABA minimum inhibitory concentration assay (aerobic/replicating); type: cell-based; conditions: Mycobacterium tuberculosis; M.tb H37Rv, aerobic/replicating; 90% inhibition of growth
hERG = hERG (Homo sapiens, UniProt Q12809); test: hERG channel blockade, manual patch clamp; type: cell-based; conditions: cloned hERG potassium channels, room temperature; for inhibition at 0.3 µM: read-out: hERG % inhib. at 0.3 µM; for inhibition at 1 µM: read-out: hERG % inhib. at 1.0 µM
Procedure: Selected compounds were evaluated for hERG channel blockade (Table 4) by WuXi AppTec (Shanghai) Co., Ltd. This was carried out using cloned hERG potassium channels according to their standard manual patch clamp method. Two concentrations (0.3 and 1.0 µM) were tested (at room temperature), and at least three replicates were obtained for each. Amitryptyline was used as a standard.

[6] = tested on: Mycobacterium tuberculosis (strain H37Rv); test: LORA minimum inhibitory concentration assay (low-oxygen/non-replicating); conditions: M.tb H37Rv, 90% inhibition of growth

hERG, sequence (Q12809 whole entry): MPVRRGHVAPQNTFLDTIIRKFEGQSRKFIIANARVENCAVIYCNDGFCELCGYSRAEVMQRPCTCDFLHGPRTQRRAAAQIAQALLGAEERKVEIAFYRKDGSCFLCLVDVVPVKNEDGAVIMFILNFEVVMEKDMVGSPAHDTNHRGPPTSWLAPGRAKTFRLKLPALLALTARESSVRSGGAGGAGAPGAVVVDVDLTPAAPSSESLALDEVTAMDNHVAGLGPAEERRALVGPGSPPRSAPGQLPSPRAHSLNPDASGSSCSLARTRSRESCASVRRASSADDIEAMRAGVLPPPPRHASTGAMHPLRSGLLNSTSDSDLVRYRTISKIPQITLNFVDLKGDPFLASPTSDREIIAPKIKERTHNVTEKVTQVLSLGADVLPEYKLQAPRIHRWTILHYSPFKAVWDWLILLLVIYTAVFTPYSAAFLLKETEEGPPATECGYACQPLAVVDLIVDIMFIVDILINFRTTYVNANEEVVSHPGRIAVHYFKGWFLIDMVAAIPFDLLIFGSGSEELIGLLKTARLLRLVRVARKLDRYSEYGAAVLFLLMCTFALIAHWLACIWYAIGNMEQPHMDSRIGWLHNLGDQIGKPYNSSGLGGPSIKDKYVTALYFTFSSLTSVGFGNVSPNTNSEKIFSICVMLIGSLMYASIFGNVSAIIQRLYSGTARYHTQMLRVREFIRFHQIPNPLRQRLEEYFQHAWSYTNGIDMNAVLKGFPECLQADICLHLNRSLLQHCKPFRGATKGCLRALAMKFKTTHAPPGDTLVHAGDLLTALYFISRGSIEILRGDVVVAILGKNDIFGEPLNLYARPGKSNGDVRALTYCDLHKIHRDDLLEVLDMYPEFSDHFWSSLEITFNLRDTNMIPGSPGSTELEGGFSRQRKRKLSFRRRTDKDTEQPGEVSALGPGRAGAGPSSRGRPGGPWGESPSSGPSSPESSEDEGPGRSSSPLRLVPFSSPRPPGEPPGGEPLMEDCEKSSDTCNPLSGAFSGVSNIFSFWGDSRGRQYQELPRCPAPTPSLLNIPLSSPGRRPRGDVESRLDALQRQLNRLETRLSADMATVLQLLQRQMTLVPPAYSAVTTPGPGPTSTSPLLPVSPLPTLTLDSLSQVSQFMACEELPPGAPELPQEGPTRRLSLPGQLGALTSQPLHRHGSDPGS

SMILES	activity in vivo in an acute mouse model of tuberculosis (tuberculosis)	inhibition of M.tb bacteria in culture (M.tb bacteria)	depletion of ATP [1]	CLint scaled at 1 μM [2] [mL/min/kg]	half-life at 1 μM [2] [h]	microsomal CLint at 1 μM [2] [µL/min/mg]	CLint scaled at 1 μM [3] [mL/min/kg]	half-life at 1 μM [3] [h]	microsomal CLint at 1 μM [3] [µL/min/mg]	IC50 [4] [µg/mL]	MIC90 [5] [µg/mL]	inhibition at 0.3 µM (hERG) [%]	inhibition at 1 µM (hERG) [%]	MIC90 LORA [6] [µg/mL]	melting point [°C]
CN(C)CCOc1ncc(Nc2cc(C(F)(F)F)nc3cc(-c4ccc(F)cc4)nn23)cc1F [Compound 6]	active in vivo	modest inhibitors	modest inhibitors												
CN(C)CCOc1ncc(Nc2cc(-c3ccccc3)nc3cc(-c4ccc(F)cc4)nn23)cc1F [Compound 5]	active in vivo	modest inhibitors	modest inhibitors												
Fc1ccc(-c2cnn3c(NCc4cc(N5CCCCC5)ccn4)cc(-c4ccccc4)nc23)cc1 [Compound 68, 3-(4-Fluorophenyl)-5-phenyl-N-((4-(piperidin-1-yl)pyridin-2-yl)methyl)pyrazolo[1,5-a]pyrimidin-7-amine]				11	1.87	12	92	1	23	> 32	0.96 (≈ 2.01 µM)	19	36	0.85 (≈ 1.78 µM)	189 to 191
Fc1ccc(-c2cnn3c(NCc4ccc(F)cn4)cc(-c4ccccc4)nc23)cc1 [Compound 52, 3-(4-Fluorophenyl)-N-((5-fluoropyridin-2-yl)methyl)-5-phenylpyrazolo[1,5-a]pyrimidin-7-amine]				11	1.81	13	50.3	1.82	12.7	> 32	3.7 (≈ 8.95 µM)	0.8	11	3.4 (≈ 8.22 µM)	118 to 120
